The target of experiment [1] is T1, RLF receptor (brain) (Mus musculus, UniProt Q91ZZ5).
T1 construct: from tissue; host or cells: mouse brain, crude membranes
The experiment is described as follows: Binding assay, mouse brain crude membranes, hRLF tracer. On the procedure: (§1) Relaxin-binding assays were performed as described in Yang, et al., 1992, Endocrinology 130:179-185 and Büllesbach, et al., 1994, Endocrine. 2:1115-1120, using crude membrane preparations of mouse tissue. Mouse brains of 2 mice were collected into 15 ml of chilled buffer (25 mM HEPES, 0.14 M NaCl, 5.7 mM KCI, 0.2 mM phenylmethylsulfonyl-fluoride, and 80 mg/ml soybean trypsin inhibitor, pH 7.5) supplemented with sucrose (0.25 M, final concentration). The tissue was homogenized on ice for 10 s with a Polytron homogenizer (Brinlmann, Westbury, N.Y.) at setting 5. The homogenate was centrifuged at 700 rpm for 10 min at 4° C. and the supernatants were recentrifuged at 10,000×g for 1 h. The pellet was resuspended in 15 ml of ice cold binding buffer, 25 mM HEPES, 0.14 M NaCl, 5.7 mM KCI, 0.2 mM phenylmethylsulfonylfluoride, and 80 mg/ml soybean trypsin inhibitor, pH 7.5, supplemented with 1% bovine serum albumin, and centrifuged for 1 h at 10,000×g. […] The supernatant was discarded, the tip of the vial cut and counted in a γ-counter. Nonspecific binding was determined in the presence of 2 μl/ml of unlabeled competitor (0.33 μM). […]
(§2) Tissue specificity was determined using crude membrane preparations of leg muscles, kidneys, liver. brain, and uterus (of estrogen primed mice). […] Binding was based on protein concentration determined by Lowry. […]

The test system of experiment [2] is fibronectin expression, rheumatoid synovial fibroblasts. The experiment is described as follows: Inhibition of fibronectin expression by synovial fibroblasts. It counts as cell-based, human. The following applies: 100 ng/ml; TGF-β-treated fibroblasts. The source says: The method for detecting and measuring collagen formation in the presence of relaxin described in Unemori and Amento, 1990, J. Biol. Chem. 265:10681-685 has been modified as follows to determine the ability of RLF, in vitro, to modulate the expression of fibronectin.
Materials And Methods. Specifically, using the method described in section 6.7.1., the fibronectin band was identified by size (220 kDa), bacterial collagenase-resistance, and positive staining using commercially available polyclonal anti-fibronectin antibody (Promega). The fibronectin band was scanned densitometrically to estimate levels of expression.

The target in experiment [3] is T2, RLF receptor (uterus) (Mus musculus, UniProt Q91ZZ5).
T2 construct: brain, and uterus (of estrogen primed mice); from tissue; host or cells: uterus of estrogen-primed mice, crude membranes
T2 sequence (Q91ZZ5 whole entry): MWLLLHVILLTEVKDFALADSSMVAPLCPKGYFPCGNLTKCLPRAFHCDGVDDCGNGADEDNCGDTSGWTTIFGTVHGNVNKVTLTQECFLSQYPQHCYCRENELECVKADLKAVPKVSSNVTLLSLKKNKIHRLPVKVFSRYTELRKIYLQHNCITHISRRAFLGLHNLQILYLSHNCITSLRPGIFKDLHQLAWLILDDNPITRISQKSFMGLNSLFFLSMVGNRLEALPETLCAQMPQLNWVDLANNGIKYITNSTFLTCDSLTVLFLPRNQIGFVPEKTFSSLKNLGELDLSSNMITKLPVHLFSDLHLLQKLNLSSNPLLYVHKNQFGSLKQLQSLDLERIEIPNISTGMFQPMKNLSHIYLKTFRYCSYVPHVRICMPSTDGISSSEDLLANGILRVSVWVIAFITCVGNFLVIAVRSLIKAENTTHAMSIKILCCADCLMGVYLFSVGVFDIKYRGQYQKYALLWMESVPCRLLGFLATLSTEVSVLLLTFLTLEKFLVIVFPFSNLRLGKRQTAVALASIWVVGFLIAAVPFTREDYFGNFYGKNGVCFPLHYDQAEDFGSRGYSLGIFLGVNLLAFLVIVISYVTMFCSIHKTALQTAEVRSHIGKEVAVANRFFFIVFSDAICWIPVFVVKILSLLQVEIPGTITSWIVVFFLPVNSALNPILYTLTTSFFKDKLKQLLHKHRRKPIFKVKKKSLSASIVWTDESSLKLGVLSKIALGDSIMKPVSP
The experiment is described as follows: Binding assay, mouse uterus crude membranes, hRLF tracer. On the procedure: as §1, §2

Experiment [4] concerns symphysis pubis of ovariectomized estrogen-primed female mice. The experiment is described as follows: Mouse symphysis pubis (interpubic ligament) assay. It counts as in vivo. As to the method:
Mouse interpubic ligament assays were performed essentially as described by Steinetz, et al., 1960, Endocrinology 67:102-115. Ovariectomized virgin female mice were printed with 5 μg estrogen cypionate in 100 μl sesame oil. Five days later the mice were injected subcutaneously with human relaxin, RLF, or mixtures of human relaxin and RLF in 100 μl of 0.1% benzopurpurin 4B. Specifically, groups of five animals received either human relaxin at a suboptimal dose or a mixture of 0.2 μg, 0.4 μg and 0.8 μg human relaxin and 5 μg of RLF as given in FIG. 8. For negative control 100 μl of 0.1% benzopurpurin 4B in water were injected. After 16 hours the mice were killed in an atmosphere of CO2, the symphysis pubis dissected free, and the distance between the interpubic bones measured with a dissecting microscope fitted with transilluminating fiber optics.

Experiment [5] relates to washed human sperm. The experiment is described as follows: Sperm motility assay. The experiment is classed as cell-based. The following applies: 10 and 100 ng/ml. An excerpt: Materials And Methods. Semen is obtained by masturbation from healthy volunteers. The sample is allowed to liquefy at room temperature and is then mixed with Minimum Essential Medium (MEM) with Hepes buffer added. This medium is used because it coincides with that washing medium employed by the in vitro clinic at MUSC. The sperm is then separated from the seminal fluid and MEM by centrifugation. The resultant sperm pellet is then resuspended in MEM at room temperature. Aliquots are then place in siliconized centrifuge tubes and one of several compounds added: l)human relaxin 10 ng/ml, 2)human relaxin 100 ng/ml, 3)relaxin-like factor 10 ng/ml, 4)relaxin-like factor 100 ng/ml, 5)one fraction of alkaline gland fluid from stingrays diluted 1:8 with pentoxyfyline. The additive is mixed well with the sperm/medium mixture. Samples are taken at 0, 2, 4, 6 and 24 hour intervals for automated determination of the following parameters: 1)motility, 2)progressivity, 3)path velocity, 4)progressive velocity, 5)track speed, 6)elongation, 7)lateral displacement, 8)cross beat frequency, 9)straightness, 10)linearity. Briefly described, each sample is loaded into a Maker heated specimen chamber and viewed in a light microscope equipped with laser doppler optics (IVOS, Beverly, Mass.).

In experiment [6] the test system is procollagenase expression, rheumatoid synovial fibroblasts (Strain No. RSF112). The experiment is described as follows: Stimulation of procollagenase expression by synovial fibroblasts (gelatin zymography). It counts as cell-based, human. The source says:
A method for detecting and measuring procollagenase formation is described in Unemori, et al., 1991, J. Biol. Chem. 266:23477-482. Such method was modified to measure the expression of procollagenase in the presence of RLF as follows: Materials And Methods. Rheumatoid synovial fibroblasts (Strain No. […] Conditioned media were collected and an aliquot analyzed by gelatin zymography. Procollagenase was identified as a […] doublet at 52/57 kDa. The intensity of the doublet (i.e., the amount of procollagenase expressed, was quantified by scanning densitometry.

“Also recorded” adds a separate entry of the source. Positions of bridges follow the written chain, without caps; N, C: chain ends. Chains are numbered I, II in the order given. No end group written: not given here.

T1 sequence (Q91ZZ5 whole entry): as above

As to “RLF: synthesized human relaxin-like factor, two-chain peptide (A and B chain, SEQ ID NOS:3 and 4), three disulfide links (alpha AAATNPARYCCLSGCTQQDLLTLCPY; beta PTPEMREKLCGHHFVRALVRVCGGPRWSTEA; disulfide I:11-II:10; also: two further disulfide bonds, places not given here)”, the “50% Binding” value in experiment [1] and in experiment [3] was 0.3 ng throughout. Also, the “decrease of TGF-β-stimulated fibronectin expression” value in experiment [2] was 17%. The “effect on the activity of human relaxin in the mouse bioassay” value in experiment [4] (0.2, 0.4, 0.8 μg human relaxin with 5 μg RLF) was “significantly increased the activity of human relaxin”. Besides, the “optimal RLF amount for relaxin enhancement” value in experiment [4] (in the presence of 0.5 μg of human relaxin) is 5 µg. In addition, the “effect of RLF on the relaxin effect at maximal dose” value in experiment [4] (maximal dose of both) is listed as “still augmented”. For the same substance, the “symphyseal widening, RLF alone” value in experiment [4] (subcutaneous, 16 hours) was “no effect; also recorded: does not cause symphyseal widening”. Further, in experiment [5], the “potency in maintaining sperm motility relative to relaxin” value is reported as “as potent in maintaining sperm motility at both doses as was relaxin”. Moreover, in experiment [5] (0-24 h), the “effect on sperm motility compared to untreated controls” value is “preserve the motility”. Moreover, the “stimulation of procollagenase expression” value in experiment [6] (1 ng/ml) amounted to 0 fold; in experiment [6] (10 ng/ml), 2.0 fold; in experiment [6] (100 ng/ml), 4.2 fold.

The record behind these values is US6949506B2, “Relaxin-like factor and methods and uses thereof” (BAS Medical, Inc., priority 1995, dated 2005).
